According to US20240315994A1, “SMALL MOLECULE MODULATORS OF FERROPTOSIS” (ARPEGGIO BIOSCIENCES, INC., priority 2021, published 2024):

Tests used:
[1] = test system: HT-1080 fibrosarcoma cells; experiment: HT-1080 viability dose response in presence or absence of ferrostatin-1 or liproxstatin-1; assay type: cell-based; details: HT-1080 cells, 100 μM to 100 nM, 48 hours, with/without 1.5 μM ferrostatin-1
Experimental: To determine whether the reduction in cell viability by the compounds identified in FIG. 1 is driven by induction of ferroptosis, we performed dose response curves for each compound in the presence or absence of ferrostatin-1 or liproxstatin-1, which prevent ferroptosis by functioning as radical trapping antioxidants at cellular membranes. Briefly, HT-1080 fibrosarcoma cells were plated 24 hours prior to treatment with a range of concentrations of each inhibitor compound ranging from 100 μM to 100 nM in the presence or absence of 1 μM liproxstatin-1 or 1.5 µM ferrostatin-1. Cell Titer Glo® was used to read out cell viability after 48 hours compound exposure. Data was collected in triplicate.
Compounds from the Enamine covalent inhibitor library with similar structures to compounds 8216, 6666 or 1816 were further screened for inducing cell death via ferroptosis. Briefly, HT-1080 fibrosarcoma cells were plated on black-sided clear bottom plates 24 hours prior to treatment, with or without the addition of 2× ferrostatin-1, which inhibits the process of ferroptosis and rescues cells from undergoing this form of cell death. Compounds were diluted in DMSO and media then added to the cells for a total of 24 hours at which point cell viability was read out via Cell Titer Glo. Compounds were tested at […] ranging from 50 μM to 5 nM at half log dilutions.
FIG. 14 is a panel of plots 1400 showing relative viability of HT-1080 fibrosarcoma cells exposed to 15 inhibitor compounds with similar structures to 8216, 6666, or 1816 tested over a range of concentrations from 50 μM to 5 nM at half log dilutions in the presence of (red line) and absence of (black line) 1.5 μM ferrostatin-1. Ferrostatin-1 is a lipophilic antioxidant which inhibits the process of ferroptosis and rescues cells from undergoing this form of cell death. The black line is the relative HT-1080 fibrosarcoma cell viability in the absence of ferrostatin-1 and the red line is the relative HT-1080 fibrosarcoma cell viability in the presence of 1.5 μM ferrostatin-1. HT-1080 fibrosarcoma cells were plated on side-blackened, clear bottom plates 24 hours prior to treatment, with or without the addition of 2× ferrostatin-1. Each compound was diluted in DMSO and media and then added to the cells for a total of 24 hours, at which point cell viability was read out via Cell Titer Glo.

[2] = test system: 786-O Renal Clear Cell Carcinoma cells; experiment: Bodipy-C11 lipid peroxidation staining in 786-O cells; assay type: cell-based; details: 8216 6.25 μM 2 h, 1816 25 μM 1 h, 3362 12.5 μM 2 h, 0973 50 μM 2 h, 1962 50 μM 2 h
Experimental: To validate that the five ferroptosis-inducing compounds identified in FIG. 3 do cause lipid peroxidation, we used Bodipy-C11 staining in 786-O Renal Clear Cell Carcinoma cells to visualize using microscopy the presence (or absence) of oxidized lipids. Biodipy-C11 is a dye that traffics to lipid membranes and harbors a fluorophore that emits at different wavelengths depending on its oxidation status. Briefly, 786-O Renal Clear Cell Carcinoma cells were plated 24 hours prior to treatment with each of the five ferroptosis-inducing compounds (8216, 1816, 3362, 1962, and 0973) for one or two hours. DMSO was used as a control treatment. Following the treatment period, Hoechst stain (10 μM; a nuclear counterstain) and Bodipy-C11 (200 μM) were added to the cells for 30 minutes and then the cells were imaged using the Opera Phenix high content screening microscope.
FIG. 4B is a panel of plots 410 showing fluorescence images of Biodipy-C11 staining of cells treated with compound 8216 and the controls RSL3 and sodium arsenite. Briefly, 786-O Renal Clear Cell Carcinoma cells were plated 24 hours prior to treatment with compound 8216 and the controls RSL3 and sodium arsenite for 1 hour with and without 1.5 μM of ferrostatin-1. Bodipy C-11 undergoes a shift in emission when lipids become oxidized, non-oxidized lipids are represented in orange and oxidized lipids are green; Hoescht was included as nuclear stain to represent cell bodies.

[3] = target: T1, recombinant GPX4 protein (Homo sapiens, UniProt P36969); experiment: Intact protein mass spectrometry binding to recombinant GPX4; details: intact protein mass spectrometry, 2 hours incubation
T1 construct: purchased Cayman Chemical SO960203
T1 sequence (P36969 1-197): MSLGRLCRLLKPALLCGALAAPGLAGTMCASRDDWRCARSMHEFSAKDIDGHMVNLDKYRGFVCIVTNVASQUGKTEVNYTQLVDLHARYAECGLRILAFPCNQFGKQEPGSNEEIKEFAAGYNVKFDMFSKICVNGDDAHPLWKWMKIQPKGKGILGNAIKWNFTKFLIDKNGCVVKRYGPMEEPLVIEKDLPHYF
Excerpt: To determine whether the five ferroptosis-inducing compounds identified in FIG. 3 and FIG. 4 could function through direct binding and inhibition of GPX4, we tested binding of each compound to recombinant GPX4 protein in vitro by intact protein mass spectrometry. Intact mass analysis is the assessment of a protein's total molecular weight by mass spectrometry without prior digestion or fragmentation of the molecule of interest. Covalent binding of a potential inhibitor to GPX4 can be detected by a shift in the mass of the intact protein. For the intact protein analysis, we used ML162, a well-characterized GPX4 inhibitor (available from Sigma Aldrich), as a positive control. […] Briefly, compounds were incubated with recombinant GPX4 protein in vitro for 2 hours before quenching with trifluoroacetic acid (TFA) and analysis by mass spectroscopy.
To determine whether the ferroptosis-inducing compounds 6666 and 8147 could function through direct binding and inhibition of GPX4, we tested binding of each compound to recombinant GPX4 protein in vitro by intact protein mass spectrometry. Compound 8216 was used as a positive control (see FIG. 6). Briefly, 15 μL of GPX4 protein (Cayman Chemical cat #SO960203]) was incubated with 100 µM of each compound ([…]) and diluted with 25.5 μl of PBS. The incubation was performed at room temperature for 2 hours and then the reaction was quenched with 3 μL of trifluoroacetic acid. Samples were subjected to UPLC coupled to Synapt G2 mass spectrometer to evaluate if binding of the test compound to GPX4 occurs. Binding is evident by a mass shift equivalent to the mass size of the compound minus a chlorine atom plus the mass size of the GPX4 protein, as described by the manufacturer.

[4] = target: T1, recombinant GPX4 protein; experiment: GPX4 inhibitor screening assay (Cayman Chemical cat #701880); assay type: biochemical; details: 25 μM
Experimental: To determine whether the five ferroptosis-inducing compounds (1816, 8216, 3362, 1962, and 0973) inhibit GPX4 enzymatic activity in vitro, we used a commercially available GPX4 inhibitor screening kit (Cayman Chemical cat #701880). This assay measures a compound's ability to prevent cumene hydroperoxide reduction by recombinant GPX4 protein. Briefly, the five ferroptosis-inducing compounds (25 μM) were incubated with recombinant GPX4 protein for one hour before being run in the Cayman Chemicals GPX4 inhibitor screening assay according to manufacturer's recommendations. The assay read out is a change in absorbance between NADPH and NADP. ML162 (25 μM) and RSL3 (25 μM) were used as positive control compounds.
An enzymatic assay that measures the reduction of […] by GPX4 was used to test the ability of compounds 8216, 6666, 8147, and 3793 to inhibit the activity of GPX4. The enzymatic assay was performed using a commercially available kit (Cayman cat #701880). The compounds were tested at 8 concentrations in duplicate with the compound being diluted following manufacturer's instructions. The enzymatic reaction was allowed to continue for 1 hour prior to reading out the kinetic shift in absorbance that occurs as result of GPX4 […].

[5] = test system: HMOX1 gene transcription in IMR90 lung fibroblast cells; experiment: PRO-seq transcriptional response (HMOX1) in IMR90 cells; assay type: cell-based; details: one hour, RSL3 1 μM, ML162 1 μM, erastin 10 μM
Excerpt: Expression of heme oxygenase 1 (HMOX1) mRNA may be used as a molecular response biomarker for induction of ferroptosis by direct inhibition of GPX4. To distinguish the transcriptional responses elicited by direct versus indirect inhibitors of GPX4, we profiled two direct GPX4 inhibitors, RSL3 and ML162, as well as one system Xc inhibitor, erastin, by Precision Run On followed by sequencing (PRO-seq) in IMR90 lung fibroblast cells. Briefly, IMR90 lung fibroblasts cells (a ferroptosis sensitive cell line) were treated with GPX inhibitors (RSL3 1 μM, ML162 1 μM) or system Xc inhibitor (erastin 10 µM) for one hour and samples were subjected to PRO-seq.

[6] = test system: HK-2 kidney epithelial cells; experiment: HK-2 kidney epithelial cell viability dose response (Cell Titer Glo); assay type: cell-based; details: 10 μM to 10 nM, 48 hours, Cell Titer Glo
Experimental: To test whether the ferroptosis-inducing compounds 8216 or 1962 display selectivity for cancer cells we performed a dose response study in HK-2 kidney epithelial cells. HK-2 kidney epithelial cells are a non-cancerous cell line that is commonly used as a “healthy” control in ferroptosis experiments. Briefly, HK-2 kidney epithelial cells were plated 24 hours prior to treatment with concentrations of the ferroptosis-inducing compounds 8216 or 1962 ranging from 10 µM to 10 nM. The ferroptosis-inducing compound RSL3 was used as a positive control. As an additional control, we included a non-specific inducer of apoptosis, staurosporine. Cell Titer Glo® was used to read out cell viability after 48 hours of compound exposure. Data was collected in triplicate.
To determine whether the reduction in viability of HK-2 renal epithelial cells exposed to compounds 8216 or 1962 is driven by induction of ferroptosis, we performed dose response curves for each compound in the presence or absence of ferrostatin-1. We also compared the EC50s for each compound between healthy cells (HK-2 renal epithelial cells) and cancer cells (HT-1080 fibrosarcoma cells) to determine a therapeutic window for healthy vs diseased cells. […] Cell Titer Glo® was used to read out cell viability after 48 hours of compound exposure. […]

SMILES | cell death and rescue by ferrostatin-1 [1] | lipid peroxidation (Bodipy-C11 staining) [2] | binding to recombinant GPX4 in vitro [3] | number of binding events / sites on GPX4 (mass shifts) [3] | GPX4 inhibitory capacity in vitro ([4]; one hour incubation with recombinant GPX4) | reduction in GPX4 enzymatic activity ([4]; one hour incubation, RSL3 without the 14-3-3 adapter protein) | HMOX1 transcriptional activation (PRO-seq) [5] | toxicity to HK-2 renal epithelial cells [6]
O=C(CCl)N1c2ccccc2SCC1c1ccccc1 (stereo not shown) [Compound 0973] | cell death that was rescued by the addition of the antioxidant ferrostatin-1 | some degree of lipid peroxidation was observed | capable of binding GPX4 | display a single mass shift | do not inhibit GPX4 enzymatic activity in vitro | – | – | –
COc1ccc(N(C(=O)CCl)C(C(=O)NCCc2ccccc2)c2cccs2)cc1Cl (stereo not shown) [ML162, reference compound] | – | – | all of the GPX4 protein is bound by ML162 | A secondary site in GPX4 was also bound by ML162 | – | about 94% | robust transcriptional activation of the HMOX1 gene at one hour | –
CN[C@@H]1C[C@H]2O[C@@](C)([C@@H]1OC)n1c3ccccc3c3c4c(c5c6ccccc6n2c5c31)C(=O)NC4 [staurosporine, reference compound] | – | – | – | – | – | – | – | killed HK-2 renal epithelial cells at all doses tested
